{"source": "patent US20150366962A1", "about": "(priority 2014, published 2015)", "key": {"myeloid dendritic cells": {"system": "myeloid dendritic cells", "assay": "Chemokine induction in human myeloid dendritic cells", "format": "cell-based", "conditions": "myeloid DC", "experimental": "TLR7 expression in humans is limited to plasmacytoid DC and B cells, and different from the expression in mice. Conversely, TLR4 is abundantly expressed in different cell types in humans and mice. Thus, experiments were performed to determine whether 1Z105 and 1V270 could stimulate human umbilical vein cells (HUVEC) and myeloid dendritic cells."}, "[1]": {"system": "rHA derived from A/Vietnam/1203/2004 (VN/04)", "set-up": "species or system BALB/c mice", "conditions": "mouse, in vivo"}, "[2]": {"assay": "Histological examination for reactogenicity (H&E, injected muscle)", "format": "in vivo, BALB/c mice", "conditions": "for inflammation at the site of injection and systemically in comparison to AddaVax: 24 h after i.m. injection; for cellular infiltration in injected muscle (H&E): i.m. without antigen, 24 h after injection", "from_the_text": "Scale bars, 100 μm. […] The error bars indicate SEM.\nTwenty-four hours after injection, muscle tissues at the injection sites and sera were harvested. The muscles were fixed in 10% buffered formalin and embedded in paraffin. Sections 5 μm thick were stained with hematoxylin and eosin (H&E) and examined under a microscope."}, "recombinant PR8 HA": {"system": "recombinant PR8 HA", "assay": "T cell response to head and stalk segments of PR8 HA (IFNγ ELISpot or ELISA)", "format": "in vivo, Balb/c mice", "conditions": "two immunizations two weeks apart, 6 weeks after the first"}, "[3]": {"system": "A/Brisbane/59/2007 (H1N1), A/Uruguay/716/2007 (H3N2), B/Brisbane/60/2008", "assay": "Fluzone immunization: serum IgG to the vaccine's viral components", "format": "in vivo, BALB/c mice", "conditions": "50 ng/HA 2009-2010 Fluzone, 3 weeks"}, "[4]": {"system": "rHA derived from A/California/04/2009 (pH1N1)", "assay": "rHA (Cal/09) immunization: serum IgG ELISA", "format": "in vivo, BALB/c mice", "conditions": "5 μg Cal/09 rHA, 3 weeks after immunization"}, "OT-II splenocytes": {"system": "OT-II splenocytes", "assay": "Intracellular IFNγ in CD4 T cells of OT-II splenocytes", "format": "cell-based, mice", "conditions": "for intracellular IFNγ expressing CD4 T cells: alone, OVA323-339, 3 days", "experimental": "To evaluate whether 1Z105 can enhance the proinflammatory cytokine induction by 1V270, BMDC (C57BL/6) were incubated with 1V270 (0.025, or 0.1 μM) in the presence or absence of 1Z105 (5 μM). […] Antigen presenting function was evaluated using splenocytes prepared from OVA MHC class II-restricted alpha beta T cell receptor (TCR) transgenic mice OT-II. Splenocytes were cultured with OVA peptide (OVA323-339) for 3 days with 1Z105, or 1V270 alone or in combination. The frequency of intracellular (IC) IFNγ expressing CD4 T cells was determined by flow cytometric assay. Treatment with 1V270 alone increased intracellular IFNγ (3.7 and 6.8% by 25 and 100 nM, respectively)."}, "rCal/09 HA": {"system": "rCal/09 HA", "assay": "Cross-reactive serum IgG to Cal/09 HA after rPR/8 HA immunization", "format": "in vivo, BALB/c mice", "conditions": "for heteroreactive serum IgG titers versus unadjuvanted protein alone: 5 μg rPR/8 HA, rCal/09 HA substrate, 3 weeks"}, "PBMC": {"system": "PBMC", "assay": "IL-8 release by human PBMC", "format": "cell-based", "from_the_text": "To confirm the activities of 1Z105/1V270 combined adjuvant in human cells, PBMC were stimulated with these agonists."}, "[5]": {"system": "A/Puerto Rico/8/1934(H1N1)", "set-up": "species or system BALB/c mice", "conditions": "mouse, in vivo"}, "[6]": {"system": "Purified CD4+ or CD8+ T cells", "assay": "Purified CD4+ or CD8+ T cell proliferation", "format": "cell-based", "conditions": "in the presence of CD3 ligation", "experimental": "Capability for induction of antigen specific CD8 T cells is one of the ideal features for adjuvants for cancer or herpes simplex virus infection. Thus, 1V270 and 1Z105 were examined to determine whether the agonists can directly induce T cell proliferation. Purified CD4+ or CD8+ T cells were incubated with 1Z105, 1V270 alone or in combination."}}, "data": [{"smiles": "Cn1c2ccccc2c2nc(SCC(=O)NC3CCCCC3)n(-c3ccccc3)c(=O)c21", "note": "[Compound 1Z105]", "values": [{"measurement": "induction of chemokines MCP-1 and IL-8", "setting": "myeloid dendritic cells", "result": "induced the chemokines MCP-1, and IL-8"}, {"measurement": "IgG seroresponse", "setting": "[1]", "result": "enhanced"}, {"measurement": "inflammation at the site of injection and systemically in comparison to AddaVax", "setting": "[2]", "result": "minimal inflammation"}, {"measurement": "cellular infiltration in injected muscle (H&E)", "setting": "[2]", "result": "minimal cellular infiltration"}, {"measurement": "T cell response against the head segment (pool 1-2) of HA", "setting": "recombinant PR8 HA", "result": "highly induced T cell response"}, {"measurement": "seroresponse to the three viral components of Fluzone (ELISA)", "setting": "[3]", "result": "enhanced the seroresponse to all three viral components"}, {"measurement": "IgG seroresponse", "setting": "[4]", "result": "enhanced"}, {"measurement": "frequency of IFNγ-producing cells", "setting": "OT-II splenocytes; 1Z105 in combination with 1V270", "result": "additively increased"}, {"measurement": "heteroreactive serum IgG titers versus unadjuvanted protein alone", "setting": "rCal/09 HA", "result": "significantly higher"}, {"measurement": "subtypes of cross-reactive antibodies (IgG2a/IgG1)", "setting": "rCal/09 HA; antibodies cross-reactive to Cal/09 HA", "result": "produced predominately IgG1"}, {"measurement": "IL-8 release by PBMC", "setting": "PBMC", "result": "minimal levels of IL-8"}, {"measurement": "mortality", "setting": "[5]", "result": "provided protective efficacy"}, {"measurement": "mortality compared to no-adjuvant control receiving 5 μg of rHA", "setting": "[5]", "result": "significantly minimized"}, {"measurement": "survival after the lethal challenge", "setting": "[5]", "result": 100, "unit": "%"}, {"measurement": "weight loss", "setting": "[5]", "result": "significantly reduced weight loss"}, {"measurement": "purified CD4+ or CD8+ T cell proliferation", "setting": "[6]", "result": "enhanced purified CD4+ or CD8+T cell proliferation"}]}, {"smiles": "CCCCCCCCC=CCCCCCCCC(=O)OCC(COP(=O)(O)OCCNC(=O)c1ccc(Cn2c(=O)[nH]c3c(N)nc(OCCOC)nc32)cc1)OC(=O)CCCCCCCC=CCCCCCCCC", "note": "(stereo not drawn) [Compound 1V270]", "values": [{"measurement": "induction of chemokines MCP-1 and IL-8", "setting": "myeloid dendritic cells", "result": "minimal effects"}, {"measurement": "IgG seroresponse", "setting": "[1]", "result": "enhanced"}, {"measurement": "inflammation at the site of injection and systemically in comparison to AddaVax", "setting": "[2]", "result": "minimal inflammation"}, {"measurement": "cellular infiltration in injected muscle (H&E)", "setting": "[2]", "result": "minimal cellular infiltration"}, {"measurement": "T cell response against the head segment (pool 1-2) of HA", "setting": "recombinant PR8 HA", "result": "highly induced T cell response"}, {"measurement": "stalk-specific (pool 3-4) T cell responses", "setting": "recombinant PR8 HA", "result": "also induced stalk-specific (pool 3-4) T cell responses"}, {"measurement": "seroresponse to the three viral components of Fluzone (ELISA)", "setting": "[3]", "result": "enhanced the seroresponse to all three viral components"}, {"measurement": "IgG seroresponse", "setting": "[4]", "result": "enhanced"}, {"measurement": "intracellular IFNγ expressing CD4 T cells", "setting": "OT-II splenocytes; 25 nM", "result": 3.7, "unit": "%"}, {"measurement": "intracellular IFNγ expressing CD4 T cells", "setting": "OT-II splenocytes; 100 nM", "result": 6.8, "unit": "%"}, {"measurement": "heteroreactive serum IgG titers versus unadjuvanted protein alone", "setting": "rCal/09 HA", "result": "significantly higher"}, {"measurement": "IL-8 release by PBMC", "setting": "PBMC", "result": "minimal levels of IL-8"}, {"measurement": "mortality", "setting": "[5]", "result": "provided protective efficacy"}, {"measurement": "survival after the lethal challenge", "setting": "[5]", "result": 100, "unit": "%"}, {"measurement": "weight loss", "setting": "[5]", "result": "significantly reduced weight loss"}, {"measurement": "weight loss compared to AddaVax", "setting": "[5]", "result": "restricted weight loss compared to AddaVax"}, {"measurement": "purified CD4+ or CD8+ T cell proliferation", "setting": "[6]", "result": "enhanced purified CD4+ or CD8+T cell proliferation"}]}]}
